# Laboratory results as given in PubChem BioAssay AID1259411 (Chemical Carcinogenesis Research Information System (CCRIS), 2018).
# Calls of active or inactive are those of the source. How the calls were made is not given here.
# Tested on: rodent carcinogenicity bioassays, tumor incidence
# Assay: CCRIS carcinogenicity studies
# Outline: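 NCI-built, expert-reviewed records of carcinogenicity and related test outcomes (mutagenicity, tumor promotion/inhibition) compiled from published and report sources, historical span 1985-2011, not updated.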
compound,measurement,setting,value
c1ccc2c(c1)c1c(c3cccnc32)O1,carcinogen call,"Species: MOUSE, Strain/Sex: CD-1/FEMALE, Route: INTRAPERITONEAL, Dose: 0, 5, 10 AND 20 µL OF A 0.05 MOLAR SOLUTION ON DAYS 1, 8 AND 15 OF LIFE RESPECTIVELY (TOTAL DOSE: 1.75 UMOL) (STUDY DURA, Dose: 0, 5, 10 AND 20 µL OF A 0.05 MOLAR SOLUTION ON DAYS 1, 8 AND 15 OF LIFE RESPECTIVELY (TOTAL DOSE: 1.75 UMOL) (STUDY DURA",inactive; negative
same,carcinogen call,"Species: MOUSE, Strain/Sex: CD-1/MALE, Route: INTRAPERITONEAL, Dose: 0, 5, 10 AND 20 µL OF A 0.05 MOLAR SOLUTION ON DAYS 1, 8 AND 15 OF LIFE RESPECTIVELY (TOTAL DOSE: 1.75 UMOL) (STUDY DURA, Dose: 0, 5, 10 AND 20 µL OF A 0.05 MOLAR SOLUTION ON DAYS 1, 8 AND 15 OF LIFE RESPECTIVELY (TOTAL DOSE: 1.75 UMOL) (STUDY DURA",inactive; negative
COC(=O)c1ccc(C(=O)OC)cc1,carcinogen call,"Species: MOUSE, Strain/Sex: B6C3F1/FEMALE, Route: ORAL, Dose: 0, 2500, 5000 PPM IN DIET FOR 103 WK (STUDY DURATION: 104-105 WK), Dose: 0, 2500, 5000 PPM IN DIET FOR 103 WK (STUDY DURATION: 104-105 WK)",inactive; negative
same,carcinogen call,"Species: MOUSE, Strain/Sex: B6C3F1/MALE, Route: ORAL, Dose: 0, 2500, 5000 PPM IN DIET FOR 103 WK (STUDY DURATION: 104-105 WK), Dose: 0, 2500, 5000 PPM IN DIET FOR 103 WK (STUDY DURATION: 104-105 WK), Tumor Site: Type of Lesion: LUNG: ALVEOLAR/BRONCHIOLAR ADENOMA OR CARCINOMA",equivocal
same,carcinogen call,"Species: RAT, Strain/Sex: F344/FEMALE, Route: ORAL, Dose: 0, 2500, 5000 PPM IN DIET FOR 103 WK (STUDY DURATION: 105-106 WK), Dose: 0, 2500, 5000 PPM IN DIET FOR 103 WK (STUDY DURATION: 105-106 WK)",inactive; negative
same,carcinogen call,"Species: RAT, Strain/Sex: F344/MALE, Route: ORAL, Dose: 0, 2500, 5000 PPM IN DIET FOR 103 WK (STUDY DURATION: 105-106 WK), Dose: 0, 2500, 5000 PPM IN DIET FOR 103 WK (STUDY DURATION: 105-106 WK)",inactive; negative
CCCCCCN(N=O)C(N)=O,carcinogen call,"Species: RAT, Strain/Sex: F344/FEMALE, Route: GAVAGE, Dose: 0, 17.5 MG/ML (TOTAL DOSE 0; 2 MMOL) IN 2 ML ETHYL ACETATE AND CORN OIL (1:2) 2/WK FOR 50 WK (STUDY DURATION: LIFETIME), Dose: 0, 17.5 MG/ML (TOTAL DOSE 0; 2 MMOL) IN 2 ML ETHYL ACETATE AND CORN OIL (1:2) 2/WK FOR 50 WK (STUDY DURATION: LIFETIME), Tumor Site: Type of Lesion: FORESTOMACH: SQUAMOUS CELL CARCINOMA, LUNG: TUMOR, MAMMARY GLAND: TUMOR, UTERUS: TUMOR, Tumor Site: Type of Lesion: FORESTOMACH: SQUAMOUS CELL CARCINOMA, LUNG: TUMOR, MAMMARY GLAND: TUMOR, UTERUS: TUMOR",active; positive
same,carcinogen call,"Species: RAT, Strain/Sex: F344/FEMALE, Route: GAVAGE, Dose: 0, 17.5 MG/ML IN 0.2 ML ETHYL ACETATE AND CORN OIL 2/WK FOR 50 WK (STUDY DURATION: LIFESPAN), Tumor Site: Type of Lesion: FORESTOMACH: TUMOR, LUNG: TUMOR, MAMMARY GLAND: TUMOR, UTERUS: TUMOR, Tumor Site: Type of Lesion: FORESTOMACH: TUMOR, LUNG: TUMOR, MAMMARY GLAND: TUMOR, UTERUS: TUMOR",active; positive
same,carcinogen call,"Species: RAT, Strain/Sex: F344/MALE, Route: GAVAGE, Dose: 0, 17.5 MG/ML (TOTAL DOSE 0; 2 MMOL) IN 2 ML ETHYL ACETATE AND CORN OIL (1:2) 2/WK FOR 50 WK (STUDY DURATION: LIFETIME), Dose: 0, 17.5 MG/ML (TOTAL DOSE 0; 2 MMOL) IN 2 ML ETHYL ACETATE AND CORN OIL (1:2) 2/WK FOR 50 WK (STUDY DURATION: LIFETIME), Tumor Site: Type of Lesion: FORESTOMACH: SQUAMOUS CELL CARCINOMA, LUNG: TUMOR, BODY CAVITY: MESOTHELIOMA, Tumor Site: Type of Lesion: FORESTOMACH: SQUAMOUS CELL CARCINOMA, LUNG: TUMOR, BODY CAVITY: MESOTHELIOMA",active; positive
same,carcinogen call,"Species: RAT, Strain/Sex: F344/MALE, Route: GAVAGE, Dose: 0, 17.5 MG/ML IN 0.2 ML ETHYL ACETATE AND CORN OIL 2/WK FOR 50 WK (STUDY DURATION: LIFESPAN), Tumor Site: Type of Lesion: FORESTOMACH: TUMOR, LUNG: TUMOR, PERITONEUM: MESOTHELIOMA, SKIN: TUMOR, Tumor Site: Type of Lesion: FORESTOMACH: TUMOR, LUNG: TUMOR, PERITONEUM: MESOTHELIOMA, SKIN: TUMOR",active; positive
COC(=O)C(c1ccccc1)C1CCCCN1 (stereo unspecified),carcinogen call,"Species: MOUSE, Strain/Sex: B6C3F1/FEMALE, Route: ORAL, Dose: 0, 50, 250, 500 PPM IN DIET FOR 2 YR (STUDY DURATION: 2 YR), Dose: 0, 50, 250, 500 PPM IN DIET FOR 2 YR (STUDY DURATION: 2 YR), Tumor Site: Type of Lesion: LIVER: HEPATOCELLULAR ADENOMA",active; positive
same,carcinogen call,"Species: MOUSE, Strain/Sex: B6C3F1/MALE, Route: ORAL, Dose: 0, 50, 250, 500 PPM IN DIET FOR 2 YR (STUDY DURATION: 2 YR), Dose: 0, 50, 250, 500 PPM IN DIET FOR 2 YR (STUDY DURATION: 2 YR), Tumor Site: Type of Lesion: LIVER: HEPATOCELLULAR ADENOMA, HEPATOBLASTOMA",active; positive
same,carcinogen call,"Species: RAT, Strain/Sex: F344/FEMALE, Route: ORAL, Dose: 0, 100, 500, 1000 PPM IN DIET FOR 2 YR (STUDY DURATION: 2 YR), Dose: 0, 100, 500, 1000 PPM IN DIET FOR 2 YR (STUDY DURATION: 2 YR)",inactive; negative
same,carcinogen call,"Species: RAT, Strain/Sex: F344/MALE, Route: ORAL, Dose: 0, 100, 500, 1000 PPM IN DIET FOR 2 YR (STUDY DURATION: 2 YR), Dose: 0, 100, 500, 1000 PPM IN DIET FOR 2 YR (STUDY DURATION: 2 YR)",inactive; negative
O[C@H]1CCc2c(ccc3cc4ccc5ccccc5c4nc23)[C@@H]1O,carcinogen call,"Species: MOUSE, Strain/Sex: CD-1/FEMALE, Route: INTRAPERITONEAL, Dose: 0, 175 NMOL (TOTAL DOSE) ADMINISTERED AS 1/7 OF DOSE WITHIN 24 HR AFTER BIRTH, 2/7 OF DOSE AT 8 D OLD, 4/7 OF DOSE AT 15",inactive; negative
same,carcinogen call,"Species: MOUSE, Strain/Sex: CD-1/MALE, Route: INTRAPERITONEAL, Dose: 0, 175 NMOL (TOTAL DOSE) ADMINISTERED AS 1/7 OF DOSE WITHIN 24 HR AFTER BIRTH, 2/7 OF DOSE AT 8 D OLD, 4/7 OF DOSE AT 15",inactive; negative
COc1ccc(N)c(OC)c1,carcinogen call,"Species: MOUSE, Strain/Sex: B6C3F1/FEMALE, Route: ORAL, Dose: 0, 2500, 5000 PPM IN DIET, Dose: 0, 2500, 5000 PPM IN DIET",inactive; negative
same,carcinogen call,"Species: MOUSE, Strain/Sex: B6C3F1/MALE, Route: ORAL, Dose: 0, 2500, 5000 PPM IN DIET, Dose: 0, 2500, 5000 PPM IN DIET",inactive; negative
same,carcinogen call,"Species: RAT, Strain/Sex: F344/FEMALE, Route: ORAL, Dose: 0, 1500, 3000 PPM IN DIET, Dose: 0, 1500, 3000 PPM IN DIET",inactive; negative
same,carcinogen call,"Species: RAT, Strain/Sex: F344/MALE, Route: ORAL, Dose: 0, 1500, 3000 PPM IN DIET, Dose: 0, 1500, 3000 PPM IN DIET",inactive; negative
Cc1cc2ccccc2c2ccc3c(c12)[C@H]1O[C@H]1[C@@H](O)[C@H]3O,carcinogen call,"Species: MOUSE, Strain/Sex: ICR/FEMALE, Route: INTRAPERITONEAL, Dose: 8 NMOL/5 µL DMSO ON DAY 1, 16 NMOL/10 µL ON DAY 8, AND 32 NMOL/20 µL ON DAY 15 OF AGE (STUDY DURATION: 35 WK), Tumor Site: Type of Lesion: LUNG: TUMORS",active; positive
same,carcinogen call,"Species: MOUSE, Strain/Sex: ICR/MALE, Route: INTRAPERITONEAL, Dose: 8 NMOL/5 µL DMSO ON DAY 1, 16 NMOL/10 µL ON DAY 8, AND 32 NMOL/20 µL ON DAY 15 OF AGE (STUDY DURATION: 35 WK), Tumor Site: Type of Lesion: LIVER: TUMORS",active; positive
COc1c(Cl)c(Cl)c([N+](=O)[O-])c(Cl)c1Cl,carcinogen call,"Species: MOUSE, Strain/Sex: B6C3F1/FEMALE, Route: ORAL, Dose: 0, 0.006, 0.012% OF DIET, Dose: 0, 0.006, 0.012% OF DIET",inactive; negative
same,carcinogen call,"Species: MOUSE, Strain/Sex: B6C3F1/MALE, Route: ORAL, Dose: 0, 0.006, 0.012% OF DIET, Dose: 0, 0.006, 0.012% OF DIET",inactive; negative
same,carcinogen call,"Species: RAT, Strain/Sex: F344/FEMALE, Route: ORAL, Dose: 0, 0.006, 0.012% OF DIET, Dose: 0, 0.006, 0.012% OF DIET",inactive; negative
same,carcinogen call,"Species: RAT, Strain/Sex: F344/MALE, Route: ORAL, Dose: 0, 0.006, 0.012% OF DIET, Dose: 0, 0.006, 0.012% OF DIET",inactive; negative
